Results on 3 compounds are retold here after patent publication US10435361B2, “Kinase inhibitors” (Topivert Pharma Limited, priority 2013, dated 2019).

The structures appear in SMILES notation.

Data set [1] is described as follows: Hydrolytic stability study (DMSO/water 3:1, 60° C.). It counts as physicochemical. The method, then:
Chemical stability of compounds of the invention was assessed in a mixture of DMSO and water (3:1) at a test compound concentration of 1 mg/mL
Agilent, Waters X-Select C18, 2.5 μm, 4.6×30 mm column, 4 min method, 5-95%
MeCN/water (0.1% formic acid).
Column Oven Temperature 40° C.
Sample Preparation • A 1.0 mg sample of test compound was dissolved in 750 μL of DMSO. Water (250 μL) was added slowly, ensuring no precipitation occurred.
Recording Stability • A 50 μL aliquot of the test solution was removed and analysed in duplicate by 5 μL HPLC injections. The peak area for the test compound was recorded following manual integration of the corresponding UV trace. • The test solution was heated to 60° C., with stirring, and 50 μL aliquots removed for HPLC analysis at 5 and 24 h timepoints.

In data set [2] the test system is Salmonella typhimurium TA100. As to the kind of experiment: Bacterial reverse mutation screen, strain TA100. It counts as cell-based. The settings on record: presence or absence of S-9 mix; up to 1000 μg/plate analysable. The method, then:
(§1) Studies were conducted by Sequani (Ledbury, Herefordshire, UK) to assess compounds of the invention for their ability to induce mutations in two histidine dependent auxotrophic mutants of Salmonella typhimurium, strains TA98 and TA100 in vitro.
(§2) The mutation screen was conducted using the plate incorporation method and was performed in both the presence and absence of S-9 mix (a liver post-mitochondrial fraction derived from the livers of Aroclor 1254 treated rats). The bacteria were exposed to test compounds dissolved in dimethylsulphoxide, which solvent was also used as the negative control. The dose levels used were 0.32, 1.6, 8, 40, 200, 1000 or 5000 μg/plate.
(§3) Precipitation was also noted in both strains at 1000 μg/plate in the presence and absence of S-9 mix.

For data set [3], the system named is BDF1 mice. As to the kind of experiment: TNBS-induced colitis in mice. The settings on record: conducted over 2 days; vehicle corn oil/transcutol/maisine/cremophor ELP. It counts as in vivo. How it is done: Non-fasted, 10-12 week old, male BDF1 mice are dosed by oral gavage twice daily with either vehicle (5 mL/kg), reference item (Budesonide 2.5 mg/kg) or test compound (1 or 5 mg/kg) one day before (Day −1) stimulation of the inflammatory response by treatment with 2,4,6-trinitrobenzenesulphonic acid (TNBS) (15 mg/mL in 50% ethanol/50% saline). On Day 0 of the study TNBS (200 μL) is administered intra-colonically via a plastic catheter with BID dosing of the vehicle, reference or test compound continuing for 2 or 4 days. During the study, animals are weighed every day and stool observations are made and recorded as a score, based on stool consistency. At the time of sacrifice on Day 2 (or Day 4), the large intestine is removed and the length and weight recorded. Sections of the colon are taken for histopathology scoring to determine disease severity.

In data set [4] the test system is PBMCs. As to the kind of experiment: LPS-induced TNFα/IL-8 release in PBMC cells. In kind it is cell-based. The settings on record: Homo sapiens, assay (b), read-out: IC50 Values for Inhibition of Cytokine Release PBMCs IL-8. The method, boiled down: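 Healthy-donor PBMCs isolated by density gradient were pretreated with compound for 2 h, then stimulated with 1 ng/mL LPS (E. coli 0111:B4) for 24 h at 37° C., 5% CO2. IL-8 and TNFα in supernatants measured by sandwich ELISA.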

Data set [5] relates to Salmonella typhimurium TA98. As to the kind of experiment: Bacterial reverse mutation screen, strain TA98. In kind it is cell-based. The settings on record: presence or absence of S-9 mix; up to 1000 μg/plate analysable. How it is done: as §1, §2, §3
Data set [6] in a line: Plasma pharmacokinetics in rats, single intravenous or oral administration. In kind it is in vivo. The note with it: male, Wistar, rat, rats, intravenous 0.25 mg/kg. The method, then:
Studies were conducted by Sai Life Sciences (Hinjewadi, Pune, India) to investigate the plasma pharmacokinetics and total colon tissue distribution of compounds of the invention. In particular, pharmacokinetic studies were carried out in: • male C57BL/6 mice, following a single oral administration; and • male Wistar rats following a single intravenous or oral administration.

Data set [7] concerns Lewis rats. As to the kind of experiment: Endotoxin-induced uveitis in rats. In kind it is in vivo. The settings on record: rats treated with intravitreal endotoxin LPS. How it is done: Male, Lewis rats (6-8 weeks old, Charles River UK Limited) are housed in cages of 3 at 19-21° C. with a 12 h light/dark cycle (07:00/19:00) and fed a standard diet of rodent chow and water ad libitum. Non-fasted rats are weighed, individually identified on the tail with a permanent marker, and receive a single intravitreal administration into the right vitreous humor (5 μL dose volume) of 100 ng/animal of LPS (Escherichia coli 0111:B4 prepared in PBS, Sigma Aldrich, UK) using a 32-gauge needle. Untreated rats are injected with PBS. Test compound, dexamethasone (Dex) or vehicle (20% hydroxypropyl-β-cyclodextrin, 0.1% HPMC, 0.01% Benzalkonium chloride, 0.05% EDTA, 0.7% NaCl in deionised water) are administered by the topical route onto the right eye (10 μL) of animals 30 minutes prior to LPS, at the time of LPS administration, and 1, 2 and 4 hours post LPS administration. Before administration, the solution or suspension to be administered is agitated for 5 minutes to ensure a uniform suspension. 6 hours after LPS dosing, animals are euthanized by overdose with pentobarbitone (i.v.). Following euthanasia, the right eye of each animal is enucleated and dissected into front (anterior) and back (posterior) sections around the lens. Each section is weighed and homogenised in 500 μL of sterile phosphate buffered saline followed by 20 minutes centrifugation at 12000 rpm at 4° C. The resulting supernatant is divided into 3 aliquots and stored at −80° C. until subsequent cytokine analysis by R&D DuoSet ELISA.

Data set [8] relates to PBMCs. As to the kind of experiment: IL-2 and IFN gamma release in CD3/CD28 stimulated PBMC cells. It counts as cell-based. The note with it: Homo sapiens, assay (c). The method, boiled down: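 Healthy-donor PBMCs, density-gradient isolated, stimulated on plates pre-coated with anti-CD3 (0.3 μg/mL) and anti-CD28 (3 μg/mL) antibodies, with compound, for 3 days under standard culture conditions. IC50 derived from the dose-response curve.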

Data set [9] has as its system PBMCs. As to the kind of experiment: Cell mitosis assay in PBMCs. It counts as cell-based. The settings on record: Homo sapiens, PBMC, 5 μg/mL. The method, boiled down:
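Human PBMCs from healthy donors, density-gradient isolated, stimulated with 2% PHA 48 h, then exposed 20 h to test compounds; demecolcine 0.1 μg/mL added 2 h before harvest. Fixed/permeabilised cells stained for phospho-histone H3 and propidium iodide; mitotic lymphocytes counted by flow cytometry.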

For data set [10], the target named is CYP2C9 (Homo sapiens (Human), UniProt P11712). As to the kind of experiment: CYP2C9 inhibition studies. The note with it: inhibition at 5 μM reported instead of 15 μM (precipitation). In kind it is in vitro ADME. How it is done:
Assessment of certain in vitro ADME (absorption, distribution, metabolism, and excretion) parameters for certain compounds of the invention was conducted by BioFocus (Saffron Walden, UK).

Data set [11] relates to HT29 cells. As to the kind of experiment: IL-1β-induced IL-8 release in HT29 cells. In kind it is cell-based. The note with it: Homo sapiens, HT-29, assay (d), read-out: IC50 Values for Inhibition of Cytokine Release HT29 cells IL-8. How it is done:
HT29 cells, a human colon adenocarcinoma cell line, are plated in a 96 well plate (24 hr) and pre-treated with compounds at the desired concentration for 2 hours before addition of 5 ng/mL of IL-1β (Abcam) for 24 hours. Supernatants are harvested for IL-8 quantification by Sandwich ELISA (Duo-set, R&D System). The IC50 is determined from the dose response curve.

Setting [12] is: read-out: IC50 Values for Inhibition of Cytokine Release PBMCs IFNγ.
Setting [13] is: read-out: IC50 Values for Inhibition of Cytokine Release PBMCs IL-2.

Chain of CYP2C9 (P11712 whole entry): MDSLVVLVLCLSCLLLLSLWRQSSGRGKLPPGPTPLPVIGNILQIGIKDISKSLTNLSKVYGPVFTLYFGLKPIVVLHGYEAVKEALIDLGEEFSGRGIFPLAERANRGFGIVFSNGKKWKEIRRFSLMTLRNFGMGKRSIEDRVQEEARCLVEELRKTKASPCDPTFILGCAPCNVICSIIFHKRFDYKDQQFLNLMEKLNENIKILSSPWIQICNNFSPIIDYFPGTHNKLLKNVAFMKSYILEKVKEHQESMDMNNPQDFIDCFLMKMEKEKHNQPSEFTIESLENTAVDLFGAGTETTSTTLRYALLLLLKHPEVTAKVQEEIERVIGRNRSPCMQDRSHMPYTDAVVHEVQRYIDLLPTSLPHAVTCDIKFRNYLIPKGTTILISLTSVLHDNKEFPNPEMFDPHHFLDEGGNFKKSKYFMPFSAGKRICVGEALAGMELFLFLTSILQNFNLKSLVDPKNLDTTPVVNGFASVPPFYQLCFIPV

As for `COc1c(NC(=O)Nc2ccc(Oc3ccnc(Nc4ccccc4)c3)c3ccccc23)cc(C(C)(C)C)cc1C(=O)NC1COC1` [Example 75, 5-(tert-Butyl)-2-methoxy-N-(oxetan-3-yl)-3-(3-(4-((2-(phenylamino)pyridin-4-yl)ox)-naphthalen-1-yl)ureido)benzamide], the “% Parent Remaining” value in [1] (DMSO/water 3:1, 0 min) was 100%; in data set [1] (DMSO/water 3:1, 60° C., 1440 min), 99%. For the same compound, the “increases in revertant colonies, strain TA100” value in data set [2] is “no dose-related or statistically significant increases in revertant colonies”. Moreover, the “activity in TNBS-induced colitis (histopathology analysis)” value in [3] was “displayed substantial activity”. Besides, the results for the IC50 in [4], in [8] (setting [12]) and in data set [8] (setting [13]) were 5 nM, 14.9 nM and 56.8 nM, respectively. Moreover, in data set [5], the “increases in revertant colonies, strain TA98” value was “no dose-related or statistically significant increases in revertant colonies”. The compound further registered a clearance in [6] of 4.4 mL/min/kg. Besides, the “cytokine levels in the anterior and posterior segments of the eyes” value in data set [7] is “significantly reduced”. Besides, in data set [9], the inhibition at 5 µg/mL was 42.6%.

Turning to `C#CC(C)(C)c1cc(NC(=O)Nc2ccc(Oc3ccnc(Nc4cc(C)c5[nH]ncc5c4)n3)c3ccccc23)n(-c2ccc(C)cc2)n1` [Ref Cpd A], the “% Inh at 5 μM” value in data set [10] (CYP2C9, 0 min preincubation) is 31^[†] %; in [10] (CYP2C9, 30 min preincubation), 66^[†] %.

Consider `CNC(=O)c1cc(C(C)(C)C)cc(NC(=O)Nc2ccc(Oc3ccnc(Nc4cc(OC)cc(OCCOCCOCCOC)c4)c3)c3ccccc23)c1OC` [Example 29, 5-(tert-Butyl)-2-methoxy-3-(3-(4-((2-((3-methoxy-5-(2-(2-(2-methoxyethoxy)ethoxy)-ethoxy)phenyl)amino)pyridin-4-yl)oxy)naphthalen-1-yl)ureido)-N-methylbenzamide], for which the IC50 in data set [4] was found to be 2.3 nM; in [8] (setting [12]), 3.5 nM; in data set [8] (setting [13]) it was 51.2 nM; in data set [11] it was 0.6 nM. Besides, in [6], the clearance was found to be 14.2 mL/min/kg. For the same compound, the “cytokine levels in the anterior and posterior segments of the eyes” value in [7] is listed as “significantly reduced”. Also, the inhibition at 5 µg/mL in data set [9] stood at 34.6%.
